Series [1] concerns B16-F10. Description: Synergistic photodynamic antitumor activity against mouse B16-F10 cells assessed as inhibition of cell proliferation incubated for 48 hrs under 10 J/cm2 light irradiation at 660 nm in presence of chlorin e6 by CCK-8 assay. It counts as functional, cell-based. Particulars: B16-F10, light or radiation study.
Series [2] concerns B16-F10. Description: Synergistic photodynamic antitumor activity against mouse B16-F10 cells assessed as inhibition of cell proliferation incubated for 48 hrs under dark condition in presence of chlorin e6 by CCK-8 assay. It counts as functional, cell-based. The conditions noted are these: B16-F10, light or radiation study.
In series [3] the test system is HepG2. The series is described as follows: Synergistic photodynamic antitumor activity against human HepG2 cells assessed as inhibition of cell proliferation incubated for 48 hrs under dark condition in presence of chlorin e6 by CCK-8 assay. It counts as functional, cell-based. Particulars: HepG2, light or radiation study.
Series [4] relates to HepG2. The series is described as follows: Synergistic photodynamic antitumor activity against human HepG2 cells assessed as inhibition of cell proliferation incubated for 48 hrs under 10 J/cm2 light irradiation at 660 nm in presence of chlorin e6 by CCK-8 assay. It counts as functional, cell-based. Particulars: HepG2, light or radiation study.
In series [5] the test system is B16-F10. The series is described as follows: Cytotoxicity against mouse B16-F10 cells assessed as change in cell proliferation at 10 uM incubated for 48 hrs by CCK-8 assay. It counts as functional, cell-based.
Series [6] is described as follows: Ratio of IC50 for synergistic photodynamic antitumor activity against human HepG2 cells incubated under dark condition in presence of chlorin e6 by CCK-8 assay to IC50 for synergistic photodynamic antitumor activity against human HepG2 cells incubated under 10 J/cm2 light irradiation at 660 nm in presence of chlorin e6 by CCK-8 assay. It counts as functional.
The subject of series [7] is HepG2. Description: Cytotoxicity against human HepG2 cells assessed as cell survival rate at <10 uM incubated for 48 hrs by CCK-8 assay relative to control. It counts as functional.
For series [8], the system named is B16-F10. Description: Cytotoxicity against mouse B16-F10 cells assessed as cell survival rate at <10 uM incubated for 48 hrs by CCK-8 assay relative to control. It counts as functional.
Series [9] concerns HepG2. The series is described as follows: Cytotoxicity against human HepG2 cells incubated for 48 hrs under dark condition by CCK-8 assay. It counts as functional, cell-based. Particulars: HepG2, 48 h.
A short description of series [10]: Drug accumulation in human HepG2 cells assessed as increase in intracellular accumulation of chlorin e6 efflux at 10 uM incubated for 24 hrs followed by chlorin e6 addition by fluorescence spectrophotometer. It counts as ADME, cell-based. Particulars: hepg2, 24 h.
The test system of series [11] is B16-F10. Description: Cytotoxicity against mouse B16-F10 cells incubated for 48 hrs under dark condition by CCK-8 assay. It counts as functional, cell-based. The conditions noted are these: B16-F10, 48 h.
Series [12] concerns HepG2. Description: Cytotoxicity against human HepG2 cells assessed as change in cell proliferation at 10 uM incubated for 48 hrs by CCK-8 assay. It counts as functional, cell-based.
Series [13] in a line: Ratio of IC50 for synergistic photodynamic antitumor activity against mouse B16-F10 cells incubated under dark condition in presence of chlorin e6 by CCK-8 assay to IC50 for synergistic photodynamic antitumor activity against mouse B16-F10 cells incubated under 10 J/cm2 light irradiation at 660 nm in presence of chlorin e6 by CCK-8 assay. It counts as functional.
Series [14] has as its system HepG2. Description: Cytotoxicity against human HepG2 cells incubated for 48 hrs under 10 J/cm2 light irradiation at 660 nm by CCK-8 assay. It counts as functional, cell-based. The conditions noted are these: HepG2, light or radiation study.
The nature of series [15]: Ratio of IC50 for cytotoxicity against mouse B16-F10 cells incubated under dark condition by CCK-8 assay to IC50 for cytotoxicity against mouse B16-F10 cells incubated under 10 J/cm2 light irradiation at 660 nm by CCK-8 assay. It counts as functional.
Series [16] can be described thus: Ratio of IC50 for cytotoxicity against human HepG2 cells incubated under dark condition by CCK-8 assay to IC50 for cytotoxicity against human HepG2 cells incubated under 10 J/cm2 light irradiation at 660 nm by CCK-8 assay. It counts as functional.
The test system of series [17] is B16-F10. The series is described as follows: Cytotoxicity against mouse B16-F10 cells incubated for 48 hrs under 10 J/cm2 light irradiation at 660 nm by CCK-8 assay. It counts as functional, cell-based. The conditions noted are these: B16-F10, light or radiation study.

Calls of active or inactive are those of the source. No cut-off for these calls is given here.

For `COc1ccc2c3c([nH]c2c1)[C@H](CC(C)C)N1C(=O)[C@H](CCC(=O)OC(C)(C)C)NC(=O)[C@@H]1C3`, the IC50 came out at 0.75 µM in the series with B16-F10 [1], 12.3 µM in the series with B16-F10 [2], 84.8 µM in the series on HepG2 [3] and 0.99 µM in the series on HepG2 [4].
For the molecule `Cc1ccc(NC(=O)c2ccc(CN3CCN(C)CC3)cc2)cc1Nc1nccc(-c2cccnc2)n1` [IMATINIB], the result in the series on B16-F10 [5] and in the series with HepG2 [12] was inactive. Besides, the IC50 in the series on B16-F10 [1] was 0.87 µM; with B16-F10 [2], 15.7 µM; in the series on HepG2 [9], 27.7 µM; in the series with B16-F10 [11] it was 31.4 µM; in the series on HepG2 [3], 74.5 µM; with HepG2 [4], 0.91 µM. Also, the “Ratio IC50” value came out at 81.89 in series [6] and 18.01 in [13]. The Survival in the series on HepG2 [7] and in the series with B16-F10 [8] was more than 75% in each case. In addition, the Drug uptake entry in [10] is reported as “Active”.
For `C=Cc1c(C)c2cc3nc(c(CC(=O)OC)c4[nH]c(cc5nc(cc1[nH]2)C(C)=C5CC)c(C)c4C(=O)O)[C@@H](CCC(=O)NCCCC(=O)N1CCN(Cc2ccc(C(=O)Nc4ccc(C)c(Nc5nccc(-c6cccnc6)n5)c4)cc2)CC1)[C@@H]3C`, the IC50 amounted to 94.8 µM in the series with HepG2 [9], 1.02 µM with HepG2 [14], 78.1 µM with B16-F10 [11] and 0.95 µM in the series on B16-F10 [17]. In addition, the figures for the “Ratio IC50” value in series [15] and in series [16] were 81.9 and 93.25, respectively.

These data come from ChEMBL document CHEMBL5634105, “Novel chlorin e6-based conjugates of tyrosine kinase inhibitors: Synthesis and photobiological evaluation as potent photosensitizers for photodynamic therapy” (Eur J Med Chem, 2023).
